In patent publication US20230265116A1, “DEGRADATION OF (EGFR) BY CONJUGATION OF EGFR INHIBITORS WITH E3 LIGASE LIGAND AND METHODS OF USE” (BEIGENE, LTD., priority 2020, published 2023):

Key:
[1] = tested on: EGFR Del19/T790M/C797S (BaF3-DTC cells); assay: EGFR degradation HTRF assay, BaF3-DTC cells; format: cell-based; details: 16h treatment; for DTC Dmax (%): maximum percentage of degradation; for DC50: read-out: DTC DC50
How it was run: (§1)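 EGFR remaining after a 16 h, 37 °C exposure (8 doses, 5-fold steps from 10 uM final, 0.2% DMSO) was quantified by HTRF antibodies in cell lysate. Percent inhibition relative to DMSO control was fitted by four-parameter logistic to give DC50; Dmax denotes maximal degradation.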

[2] = target: T1, EGFR L858R/T790M/C797S (BaF3-LTC cells) (Homo sapiens, UniProt P00533, C797S/L858R/T790M); assay: EGFR degradation HTRF assay, BaF3-LTC cells; format: cell-based; details: BaF3-LTC, 16h treatment; for Dmax: maximum percentage of degradation, read-out: LTC Dmax (%); for DC50: read-out: LTC DC50
T1 construct: expressed in transfected cells; host or cells: BaF3
How it was run: as §1

T1 sequence (P00533 25-1210 T790M/C797S/L858R): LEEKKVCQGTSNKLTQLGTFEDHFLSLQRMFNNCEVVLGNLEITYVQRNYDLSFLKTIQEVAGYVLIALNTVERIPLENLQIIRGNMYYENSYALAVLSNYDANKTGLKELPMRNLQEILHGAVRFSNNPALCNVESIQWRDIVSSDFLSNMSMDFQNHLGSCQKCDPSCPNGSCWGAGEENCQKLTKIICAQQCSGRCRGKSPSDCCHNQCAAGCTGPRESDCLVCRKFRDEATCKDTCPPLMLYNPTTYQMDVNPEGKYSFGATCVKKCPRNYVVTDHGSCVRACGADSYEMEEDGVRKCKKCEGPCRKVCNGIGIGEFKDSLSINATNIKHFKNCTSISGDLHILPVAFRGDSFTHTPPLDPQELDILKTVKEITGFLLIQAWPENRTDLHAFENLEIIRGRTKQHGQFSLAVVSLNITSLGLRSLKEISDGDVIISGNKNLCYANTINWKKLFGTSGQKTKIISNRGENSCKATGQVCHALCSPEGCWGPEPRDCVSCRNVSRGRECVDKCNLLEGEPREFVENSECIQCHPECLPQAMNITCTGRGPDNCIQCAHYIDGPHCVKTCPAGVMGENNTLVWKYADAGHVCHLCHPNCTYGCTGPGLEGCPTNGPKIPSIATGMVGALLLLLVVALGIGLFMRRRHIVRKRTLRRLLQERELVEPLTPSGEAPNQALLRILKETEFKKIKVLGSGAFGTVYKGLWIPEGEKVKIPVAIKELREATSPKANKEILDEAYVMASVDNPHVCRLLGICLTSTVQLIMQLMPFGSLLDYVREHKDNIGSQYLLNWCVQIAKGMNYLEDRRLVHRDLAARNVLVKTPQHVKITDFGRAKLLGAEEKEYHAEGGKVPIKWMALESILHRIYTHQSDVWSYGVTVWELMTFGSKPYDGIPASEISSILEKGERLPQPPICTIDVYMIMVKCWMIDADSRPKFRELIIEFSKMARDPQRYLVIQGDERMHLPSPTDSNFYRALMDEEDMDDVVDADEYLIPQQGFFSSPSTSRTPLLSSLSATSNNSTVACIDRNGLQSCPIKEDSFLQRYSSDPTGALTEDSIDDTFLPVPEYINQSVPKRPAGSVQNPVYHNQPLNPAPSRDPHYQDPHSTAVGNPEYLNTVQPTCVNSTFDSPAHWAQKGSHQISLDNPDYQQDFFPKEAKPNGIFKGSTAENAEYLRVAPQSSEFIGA

SMILES	DC50 [1]	Dmax [2]	DC50 [2]	DTC Dmax (%) [1]
CCc1cc(Nc2ncc(Br)c(Nc3ccc4nccnc4c3P(C)(C)=O)n2)c(OC)cc1N1CCC(N2CCN(CC3CN(c4cc(F)c(C5CCC(=O)NC5=O)c(F)c4)C3)CC2)CC1 (centres unmarked) [Example 253, 3-(4-(3-((4-(1-(4-((5-bromo-4-((5-(dimethylphosphoryl)quinoxalin-6-yl)amino)pyrimidin-2-yl)amino)-2-ethyl-5-methoxyphenyl)piperidin-4-yl)piperazin-1-yl)methyl)azetidin-1-yl)-2,6-difluorophenyl)piperidine-2,6-dione]	7.09 nM	86.3%	19.8 nM	94.79%
CCc1cc(Nc2ncc(Br)c(Nc3ccc4nccnc4c3P(C)(C)=O)n2)c(OC)cc1N1CCC(N2CCN(CCc3ccc(C4CCC(=O)NC4=O)c(F)c3)C[C@@H]2COC)CC1 (stereo partly drawn) [Example 286, 3-(4-(2-((R)-4-(1-(4-((5-bromo-4-((5-(dimethylphosphoryl)quinoxalin-6-yl)amino)pyrimidin-2-yl)amino)-2-ethyl-5-methoxyphenyl)piperidin-4-yl)-3-(methoxymethyl)piperazin-1-yl)ethyl)-2-fluorophenyl)piperidine-2,6-dione]	23.7 nM	81.5%	59.3 nM	75.85%
CCc1cc(Nc2ncc(Br)c(Nc3ccc4nccnc4c3P(C)(C)=O)n2)c(OC)cc1N1CCC(N2CCN(CCCc3cc(F)c(C4CCC(=O)NC4=O)c(F)c3)CC2)CC1 (centres unmarked) [Example 205, 3-(4-(3-(4-(1-(4-((5-bromo-4-((5-(dimethylphosphoryl)quinoxalin-6-yl)amino)pyrimidin-2-yl)amino)-2-ethyl-5-methoxyphenyl)piperidin-4-yl)piperazin-1-yl)propyl)-2,6-difluorophenyl)piperidine-2,6-dione]	6.63 nM	87.7%	32.5 nM	90.39%
COc1cc(N2CCN(C3CN(C(=O)c4cnc(C(=O)Nc5ccc(C6CCC(=O)NC6=O)cc5)cn4)C3)CC2)c(C)cc1Nc1ncc(Br)c(Nc2ccc3nccnc3c2P(C)(C)=O)n1 (centres unmarked) [Example 723, 5-(3-(4-(4-((5-bromo-4-((5-(dimethylphosphoryl)quinoxalin-6-yl)amino)pyrimidin-2-yl)amino)-5-methoxy-2-methylphenyl)piperazin-1-yl)azetidine-1-carbonyl)-N-(4-(2,6-dioxopiperidin-3-yl)phenyl)pyrazine-2-carboxamide]	5.67 nM	81.7%	12.1 nM	76.49%
CCc1cc(Nc2ncc(Br)c(Nc3ccc4nccnc4c3P(C)(C)=O)n2)c(OC)cc1N1CCC(N2CCN(C[C@H]3CCN(c4ccc5c(c4)CN(C4CCC(=O)NC4=O)C5=O)C3)CC2)CC1 (stereo partly drawn) [Example 237, 3-(5-((R)-3-((4-(1-(4-((5-bromo-4-((5-(dimethylphosphoryl)quinoxalin-6-yl)amino)pyrimidin-2-yl)amino)-2-ethyl-5-methoxyphenyl)piperidin-4-yl)piperazin-1-yl)methyl)pyrrolidin-1-yl)-1-oxoisoindolin-2-yl)piperidine-2,6-dione]	6.15 nM	92.5%	9.47 nM	92.67%
COc1cc(N2CCC(N3C[C@H]4C[C@@H]3CN4CCC3CCN(c4cc(F)c(C5CCC(=O)NC5=O)c(F)c4)CC3)CC2)c(C)cc1Nc1ncc(Br)c(Nc2ccc3nccnc3c2P(C)(C)=O)n1 (stereo partly drawn) [Example 267, 3-(4-(4-(2-((1R,4R)-5-(1-(4-((5-bromo-4-((5-(dimethylphosphoryl)quinoxalin-6-yl)amino)pyrimidin-2-yl)amino)-5-methoxy-2-methylphenyl)piperidin-4-yl)-2,5-diazabicyclo[2.2.1]heptan-2-yl)ethyl)piperidin-1-yl)-2,6-difluorophenyl)piperidine-2,6-dione]	17.9 nM	90.3%	47.7 nM	93.96%
CCc1cc(Nc2ncc(Br)c(Nc3ccc4nc(C)ccc4c3P(C)(C)=O)n2)c(OC)cc1N1CCC(N2CCN(C3CC(c4ccc(NC5CCC(=O)NC5=O)cc4)C3)CC2)CC1 (centres unmarked) [Example 709, 3-((4-(3-(4-(1-(4-((5-bromo-4-((5-(dimethylphosphoryl)-2-methylquinolin-6-yl)amino)pyrimidin-2-yl)amino)-2-ethyl-5-methoxyphenyl)piperidin-4-yl)piperazin-1-yl)cyclobutyl)phenyl)amino)piperidine-2,6-dione]	19.8 nM	87.9%	21.6 nM	84.65%

More lines, in order of falling DC50 [1], values ahead:

DC50 [1]	Dmax [2]	DC50 [2]	SMILES	DTC Dmax (%) [1]
21.3 nM	84.1%	333 nM	CCc1cc(Nc2ncc(Br)c(Nc3ccc4nccnc4c3P(C)(C)=O)n2)c(OC)cc1N1CCC(N2CCN(CCc3ccc(C4CCC(=O)NC4=O)c(F)c3)C[C@H]2COC)CC1 (stereo partly drawn) [Example 288, 3-(4-(2-((S)-4-(1-(4-((5-bromo-4-((5-(dimethylphosphoryl)quinoxalin-6-yl)amino)pyrimidin-2-yl)amino)-2-ethyl-5-methoxyphenyl)piperidin-4-yl)-3-(methoxymethyl)piperazin-1-yl)ethyl)-2-fluorophenyl)piperidine-2,6-dione]	69.76%
8.41 nM	81.5%	37.2 nM	CCc1cc(Nc2ncc(Br)c(Nc3ccc4nccnc4c3P(C)(C)=O)n2)c(OC)cc1N1CCC(N2CCN(C(=O)[C@@H]3CCN(c4ccc(C5CCC(=O)NC5=O)cc4)C3)CC2)CC1 (stereo partly drawn) [Example 224, 3-(4-((R)-3-(4-(1-(4-((5-bromo-4-((5-(dimethylphosphoryl)quinoxalin-6-yl)amino)pyrimidin-2-yl)amino)-2-ethyl-5-methoxyphenyl)piperidin-4-yl)piperazine-1-carbonyl)pyrrolidin-1-yl)phenyl)piperidine-2,6-dione]	87.47%
4.43 nM	88.2%	9.32 nM	CCc1cc(Nc2ncc(Br)c(Nc3ccc4nc(C(F)(F)F)ccc4c3P(C)(C)=O)n2)c(OC)cc1N1CCC(N2CCN(C(=O)C3CN(c4ccc5c(c4)CN(C4CCC(=O)NC4=O)C5=O)C3)CC2)CC1 (centres unmarked) [Example 434, 3-(5-(3-(4-(1-(4-((5-bromo-4-((5-(dimethylphosphoryl)-2-(trifluoromethyl)quinolin-6-yl)amino)pyrimidin-2-yl)amino)-2-ethyl-5-methoxyphenyl)piperidin-4-yl)piperazine-1-carbonyl)azetidin-1-yl)-1-oxoisoindolin-2-yl)piperidine-2,6-dione]	85.05%
4.38 nM	80.8%	16.7 nM	CCc1cc(Nc2ncc(Br)c(Nc3ccc4nccnc4c3P(C)(C)=O)n2)c(OC)cc1N1CCC(N2CCN(C(=O)[C@H]3C[C@H](Nc4ccc(C5CCC(=O)NC5=O)cc4)C3)CC2)CC1 (some centres unmarked) [Example 298, 3-(4-(((1r,3r)-3-(4-(1-(4-((5-bromo-4-((5-(dimethylphosphoryl)quinoxalin-6-yl)amino)pyrimidin-2-yl)amino)-2-ethyl-5-methoxyphenyl)piperidin-4-yl)piperazine-1-carbonyl)cyclobutyl)amino)phenyl)piperidine-2,6-dione]	86.58%
